Experimental data from patent publication US9855270B2, “Methods and compositions for modulating estrogen receptor mutants” (priority 2014, dated 2018).
Where two headings read alike, the source gives them in different places.

What was measured:
[1] = system: MCF-7 cells stably expressing UbC HA-ER-α wild-type; test: MCF-7 Stable Cell Line Viability (UbC HA-ER-α series); type: cell-based; parameters: Percent inhibition compared to vehicle: concentration or dose not given beside the values; details: for Percent inhibition compared to vehicle: 5-Day Incubation; for Efficacy (Emax): Day 5 relative to Day 0; for EC50: read-out: Potency (EC50; nM)
Excerpt: (§1) MCF-7 Mutant ER-α Stable Cell Line Generation: MCF-7 cells stably expressing wild-type or ER-α mutants were generated by subcloning ESR1 wild-type and mutant cDNAs containing an amino terminal hemagglutinin tag into pCDH-EF1-MCS-(PGK-Puro) (referred to as EF1 HA-ER-α) and pCDH-UbC-MCS-EF1-Hygro (referred to as UbC HA-ER-α) (System Biosciences). The resulting plasmids, in addition to an empty vector negative control, were subsequently cotransfected into HEK293T cells with the pPACKH1 packaging plasmid mix (System Biosciences) according to the manufacturer's protocol. Four days post transfection lentiviral particles were purified from the cell medium, tiered and stored at −80° C. MCF-7 cells were transduced with the purified viral particles and stable cell lines were selected by growth in RPMI containing 10% FBS plus 1 μG/mL puromycin or 200 μG/mL hygromycin for pCDH-EF1-MCS-(PGK-Puro) and pCDH-UbC-MCS-EF1-Hygro, respectively.
(§2) MCF-7 Stable Cell Line Viability: MCF-7 cells were enumerated with a hemacytometer adjusted to a concentration of 40,000 cells per mL in Phenol Free RPMI containing 10% CSS with NEAA and Sodium Pyruvate. 16 microliters of the cell suspension was added to each well of a 384 well tissue culture treated white clear bottom polystyrene plate (Corning) using a Matrix 16 channel electronic pipette. The cells were incubated overnight to allow the cells to adhere. The following day, 16 microliters of Phenol Free RPMI containing 10% CSS with NEAA and Sodium Pyruvate was added to the wells of one plate, followed by 16 μL of CellTiter-Glo (Promega, Madison Wis.) luminescent cell viability reagent using a Matrix 16 channel electronic pipette. […] The “average” of the relative luminescence units (RLUs) of the wells are considered to be the baseline value at time=zero. In addition, a 10 point, 1:5 serial dilution in DMSO (Sigma-Aldrich) was performed using Matrix 12 channel electronic pipette, including DMSO only as […]. 4 μL of each dilution was then added to 196 μL of RPMI containing 10% CSS with NEAA and Sodium Pyruvate. 16 μL of medium containing compound was added to the cells at a final concentration ranging from 10 μM to 5 pM. Compound dilution in media and subsequent addition to cells were carried out using Matrix 12 channel electronic pipettes. After 5 day compound exposure, 16 μL of CellTiter-Glo (Promega, Madison Wis.) luminescent cell viability reagent was added to the cells using a Matrix 16 channel electronic pipette. CellTiter-Glo added to 32 μL of medium without cells was used to obtain a background value. […] The relative luminescence units (RLUs) of each well were measured, and relative proliferation (fold) of each sample was determined as follows: (RLU sample−RLU background)/(RLU at T=0)=relative proliferation
(§3) The UbC promoter is reported by the manufacturer (System Biosciences) to express low to moderate RNA levels while the EF1 promoter expresses high levels (System Biosciences).

[2] = system: MCF-7 cells (negative control); test: as above; type: cell-based; parameters: Percent inhibition compared to vehicle: concentration or dose not given beside the values
Excerpt: as §1, §2, §3

[3] = system: MCF-7 cells stably expressing ER-α mutants
Procedure: Potency and efficacy of ERM 1-3 were measured in vitro in ER dependent transcriptional reporter assays and viability assays of MCF-7 cells stably expressing ER-α mutants.
as §1
MCF-7 Stable Cell Line Viability: MCF-7 cells were enumerated with a hemacytometer adjusted to a concentration of 40,000 cells per mL in Phenol Free RPMI containing 10% CSS with NEAA and Sodium Pyruvate. 16 microliters of the cell suspension was added to each well of a 384 well tissue culture treated white clear bottom polystyrene plate (Corning) using a Matrix 16 channel electronic pipette. The cells were incubated overnight to allow the cells to adhere. […] The “average” of the relative luminescence units (RLUs) of the wells are considered to be the baseline value at time=zero. […] The relative luminescence units (RLUs) of each well were measured, and relative proliferation (fold) of each sample was determined as follows: (RLU sample−RLU background)/(RLU at T=0)=relative proliferation
Potency and efficacy of ERM 4-23 were measured in vitro in ER dependent transcriptional reporter assays and viability assays of MCF-7 cells stably expressing ER-α mutants.

[4] = system: UbC HA-ER-α mutant cell lines (MCF-7)
Excerpt: as §1, with “MCF-7 cells were transduced with the purified viral particles and stable cell lines were selected by growth in RPMI containing 10% FBS plus 1 μG/mL puromycin or 200 μG/mL hygromycin for pCDH-EF1-MCS-(PGK-Puro) and pCDH-UbC-MCS-EF1-Hygro, respectively.” left out
MCF-7 Stable Cell Line Viability: MCF-7 cells were enumerated with a hemacytometer adjusted to a concentration of 40,000 cells per mL in Phenol Free RPMI containing 10% CSS with NEAA and Sodium Pyruvate. […] The “average” of the relative luminescence units (RLUs) of the wells are considered to be the baseline value at time=zero. […] The relative luminescence units (RLUs) of each well were measured, and relative proliferation (fold) of each sample was determined as follows: (RLU sample−RLU background)/(RLU at T=0)=relative proliferation […]

[5] = system: MCF-7 cells transduced with an empty EF1 lentiviral vector (negative control); test: MCF-7 Stable Cell Line Viability (EF1 HA-ER-α series); type: cell-based; parameters: Percent inhibition compared to vehicle: concentration or dose not given beside the values; details: for Efficacy (Emax): Day 5 relative to Day 0; for EC50: read-out: Potency (EC50; nM); for Percent inhibition compared to vehicle: 5-Day Incubation
Excerpt: as §1, §2, §3

[6] = system: MCF-7 cells stably expressing EF1 HA-ER-α wild-type; test: as above; type: cell-based; parameters: Percent inhibition compared to vehicle: concentration or dose not given beside the values; details: for Percent inhibition compared to vehicle: 5-Day Incubation; for Efficacy (Emax): Day 5 relative to Day 0; for EC50: read-out: Potency (EC50; nM)
Excerpt: as §1, §2, §3

[7] = UbC HA-ER-α Wild-type, Agonist Mode, −E2
[8] = UbC HA-ER-α Wild-type, Antagonist Mode, +E2
[9] = Receptor None (MCF-7 negative control), Agonist Mode, −E2, 5-Day Incubation
[10] = Receptor None (MCF-7 negative control), Agonist Mode, −E2, Day 5 relative to Day 0
[11] = Receptor None (MCF-7 negative control), Antagonist Mode, +E2, 5-Day Incubation
[12] = Receptor None (MCF-7 negative control), Antagonist Mode, +E2, Day 5 relative to Day 0
[13] = Receptor None (empty EF1 lentiviral vector), Agonist Mode, −E2
[14] = Receptor None (empty EF1 lentiviral vector), Antagonist Mode, +E2
[15] = EF1 HA-ER-α Wild-type, Agonist Mode, −E2
[16] = EF1 HA-ER-α Wild-type, Antagonist Mode, +E2

SMILES: CCC(=C(c1ccc(O)cc1)c1ccc(OCCN(C)C)cc1)c1ccccc1 [4-Hydroxytamoxifen]
- Percent inhibition compared to vehicle [1, 7]: 14%
- Efficacy (Emax) [1, 7]: 1.58 ± 0.16
- EC50 [1, 7]: 0.626 ± 0.528 nM
- Percent inhibition compared to vehicle [1, 8]: 68%
- Efficacy (Emax) [1, 8]: 1.57 ± 0.08
- EC50 [1, 8]: 2.95 ± 2.51 nM
- Percent inhibition compared to vehicle [2, 9]: 19%
- Efficacy (Emax) [2, 10]: 1.42 ± 0.43
- EC50 ([2]; Receptor None (MCF-7 negative control), Agonist Mode, −E2, read-out: Potency (EC50; nM)): 263 ± 525 nM
- Percent inhibition compared to vehicle [2, 11]: 58%
- Efficacy (Emax) [2, 12]: 1.34 ± 0.07
- EC50 ([2]; Receptor None (MCF-7 negative control), Antagonist Mode, +E2, read-out: Potency (EC50; nM)): 2.47 ± 1.78 nM
- efficacy compared with fulvestrant and ERM 4-23 (in words) ([3]; UbC and EF1-derived lines, agonist mode): reduced efficacy on all the mutations tested
- efficacy compared with fulvestrant and ARN-810 (in words) ([4]; UbC promoter based cell lines): reduced efficacy on all the mutations tested
- Efficacy (Emax) [5, 13]: 1.49 ± 0.06
- EC50 [5, 13]: 0.531 ± 0.381 nM
- Percent inhibition compared to vehicle [5, 14]: 60%
- Efficacy (Emax) [5, 14]: 1.60 ± 0.08
- EC50 [5, 14]: 2.32 ± 0.599 nM
- EC50 ([5]; Receptor None (empty EF1 lentiviral vector), Antagonist Mode, −E2 (Table 27)): 0.531 ± 0.381 nM
- Percent inhibition compared to vehicle [6, 15]: 30%
- Efficacy (Emax) [6, 15]: 3.99 ± 0.38
- EC50 [6, 15]: 0.186 ± 0.04 nM
- Percent inhibition compared to vehicle [6, 16]: 40%
- Efficacy (Emax) [6, 16]: 4.05 ± 0.36
- EC50 [6, 16]: 5.16 ± 0.137 nM
- EC50 ([6]; EF1 HA-ER-α Wild-type, Antagonist Mode, −E2 (Table 27)): 0.186 ± 0.04 nM

SMILES: CC/C(=C(/c1ccc(/C=C/C(=O)O)cc1)c1ccc2[nH]ncc2c1)c1ccc(F)cc1Cl [Compound 1-3, (E)-3-(4-((E)-2-(2-chloro-4-fluorophenyl)-1-(1H-indazol-5-yl)but-1-en-1-yl)phenyl)acrylic acid]
- EC50 ([1]; Homo sapiens, MCF7, UbC HA-ER-α Wild-type, Agonist Mode, −E2): 0.58 ± 0.386 nM
- EC50 ([1]; Homo sapiens, MCF7, UbC HA-ER-α Wild-type, Antagonist Mode, +E2): 5.5 ± 6.28 nM
- Percent inhibition compared to vehicle [1, 7]: 37%
- Efficacy (Emax) [1, 7]: 1.17 ± 0.17
- Percent inhibition compared to vehicle [1, 8]: 76%
- Efficacy (Emax) [1, 8]: 1.16 ± 0.03
- EC50 ([2]; Homo sapiens, MCF7, Receptor None (MCF-7 negative control), Agonist Mode, −E2, read-out: Potency (EC50; nM)): 0.603 ± 0.74 nM
- EC50 ([2]; Homo sapiens, MCF7, Receptor None (MCF-7 negative control), Antagonist Mode, +E2, read-out: Potency (EC50; nM)): 4.84 ± 4.42 nM
- Percent inhibition compared to vehicle [2, 9]: 30%
- Efficacy (Emax) [2, 10]: 1.23 ± 0.88
- Percent inhibition compared to vehicle [2, 11]: 70%
- Efficacy (Emax) [2, 12]: 0.97 ± 0.01
- reduced the number of viable cells (compared to DMSO control) ([3]; 5 day proliferation assays, depending on the mutation and assay format): 44%-78%
- reduced the number of viable cells compared to DMSO controls ([4]; ER-α mutants expressed at low levels via the UBC promoter): 47%-78%
- EC50 ([5]; Homo sapiens, MCF7, Receptor None (empty EF1 lentiviral vector), Agonist Mode, −E2): 0.828 ± 0.347 nM
- EC50 ([5]; Homo sapiens, MCF7, Receptor None (empty EF1 lentiviral vector), Antagonist Mode, +E2): 9.27 ± 3.93 nM
- Percent inhibition compared to vehicle [5, 13]: 54%
- Efficacy (Emax) [5, 13]: 1.03 ± 0.14
- Percent inhibition compared to vehicle [5, 14]: 75%
- Efficacy (Emax) [5, 14]: 1.01 ± 0.12
- Percent inhibition compared to vehicle [6, 15]: 48%
- Efficacy (Emax) [6, 15]: 2.97 ± 0.50
- Percent inhibition compared to vehicle [6, 16]: 59%
- Efficacy (Emax) [6, 16]: 2.78 ± 0.26
- EC50 ([6]; Homo sapiens, MCF7, EF1 HA-ER-α Wild-type, Agonist Mode, −E2): 2.84 ± 1.36 nM
- EC50 ([6]; Homo sapiens, MCF7, EF1 HA-ER-α Wild-type, Antagonist Mode, +E2): 28 ± 10.3 nM
